Patent publication US6706740B2, “Fungicidal heterocyclic aromatic amides and their compositions, methods of use and preparation” (Dow AgroSciences LLC, priority 1999, dated 2004)
Read-outs that look alike come from different tables or passages of the source.

What was measured:
[1] = test system: Mycosphaerella graminicola (Septoria tritici—SEPTTR); assay: In vitro fungal growth inhibition, Mycosphaerella graminicola (SEPTTR); assay type: cell-based; conditions: Zymoseptoria tritici, read-out: SEPTTR in vitro Growth Inhibition
[2] = test system: Ustilago maydis (USTIMA); assay: microbe, parasite or virus in culture; assay type: cell-based; conditions: Mycosarcoma maydis, read-out: USTIMA in vitro Growth Inhibition
[3] = test system: Rhizoctonia solani (RHIZSO); assay: microbe, parasite or virus in culture; assay type: cell-based; conditions: Rhizoctonia solani, read-out: RHIZSO in vitro Growth Inhibition
[4] = test system: Magnaporthe grisea (Pyricularia oryzae—PYRIOR); assay: microbe, parasite or virus in culture; assay type: cell-based; conditions: Pyricularia oryzae, read-out: PYRIOR in vitro Growth Inhibition
[5] = test system: Septoria tritici—SEPTTR; assay: Leaf Blotch of Wheat, in vivo whole plant, 24 Hour Protectant; conditions: for pest or weed control at 100 ppm: Zymoseptoria tritici, 24 h, control of fungal infection vs untreated plants, read-out: SEPTTR in vivo 1 Day Protectant
[6] = test system: Phytophthora infestans—PHYTIN; assay: whole plant or invertebrate; assay type: in vivo; conditions: Phytophthora, in Solanum lycopersicum, 24 h, read-out: PHYTIN in vivo 1 Day Protectant
[7] = test system: Phytophthora infestans (PHYTIN); assay: microbe, parasite or virus in culture; assay type: cell-based; conditions: Phytophthora infestans, read-out: PHYTIN in vitro Growth Inhibition
[8] = test system: Puccinia recondita—PUCCRT; assay: Brown Rust of Wheat, in vivo whole plant, 24 Hour Protectant; conditions: for pest or weed control at 100 ppm: Puccinia, control of fungal infection vs untreated plants, read-out: PUCCRT in vivo 1 Day Protectant
[9] = test system: Stagonospora nodorum (Leptosphaeria nodorum—LEPTNO); assay: In vitro fungal growth inhibition, Stagonospora nodorum (LEPTNO); assay type: cell-based; conditions: Leptosphaeria, read-out: LEPTNO in vitro Growth Inhibition
[10] = test system: Leptosphaeria nodorum—LEPTNO; assay: Glume Blotch of Wheat, in vivo whole plant, 24 Hour Protectant; conditions: for pest or weed control at 100 ppm: Leptosphaeria, read-out: LEPTNO in vivo 1 Day Protectant
[11] = test system: Erysiphe graminis—ERYSGT; assay: Powdery Mildew of Wheat, in vivo whole plant, 24 Hour Protectant; conditions: for pest or weed control at 100 ppm: Erysiphe, control of fungal infection vs untreated plants, read-out: ERYSGT in vivo 1 Day Protectant
[12] = 100 ppm spray, wheat, 24 hour protectant, % control of fungal infection vs untreated plants
[13] = wheat plants sprayed at 100 ppm, inoculated after 24 hours
[14] = wheat plants sprayed at 100 ppm, inoculated after 24 hours, control of fungal infection vs untreated plants
[15] = 100 ppm spray, 24 hour protectant, wheat
[16] = 100 ppm spray, 24 hour protectant, wheat, control of fungal infection vs untreated plants
[17] = 100 ppm spray, wheat, 24 hour protectant

Row | SMILES | inhibition at 25 ppm ([1]; 25 ppm in growth medium) | inhibition at 25 ppm [2] | inhibition at 25 ppm [3] | inhibition at 25 ppm [4] | pest or weed control at 100 ppm [6] | inhibition at 25 ppm [7] | melting point | inhibition at 25 ppm ([9]; 25 ppm in growth medium) | inhibition at 25 ppm ([1]; 25 ppm in the growth medium) | pest or weed control at 100 ppm [5, 13] | pest or weed control at 100 ppm [8, 13] | inhibition at 25 ppm ([9]; 25 ppm in the growth medium) | pest or weed control at 100 ppm [10, 14] | pest or weed control at 100 ppm [11, 13] | other results
1 | COc1ccnc(C(=O)N[C@H]2COC(=O)[C@H](Cc3ccccc3)[C@@H](OC(=O)C(C)C)[C@H](C)OC2=O)c1OC(=O)C1CCC1 [Compound 604] | < 80% | < 80% | < 80% | < 80% | < 25% | < 80% | 176 to 177 °C | < 80% | – | – | – | – | – | – | SEPTTR in vivo 1 Day Protectant [5, 12]: + +; PUCCRT in vivo 1 Day Protectant [8, 12]: + +; LEPTNO in vivo 1 Day Protectant [10, 12]: + +; ERYSGT in vivo 1 Day Protectant [11, 12]: + +
2 | CC(NC(=O)c1nc(Br)ccc1O)c1ccc(Cl)cc1 (stereo not drawn) [Compound 487] | – | < 80% | < 80% | > 80% | < 25% | < 80% | 106 to 107 °C | – | < 80% | < 25% | 25 to 74% | < 80% | < 25% | < 25% | –
3 | CC(C)C(=O)O[C@H]1[C@H](C)OC(=O)[C@@H](NC(=O)c2cnccc2O)COC(=O)[C@@H]1Cc1ccccc1 [Compound 503] | – | < 80% | < 80% | < 80% | < 25% | < 80% | 213 to 215 °C (dec.) | – | > 80% | < 25% | 25 to 74% | > 80% | 25 to 74% | 25 to 74% | –
4 | CC(NC(=O)c1ncccc1O)c1ccccc1 (stereo not drawn) [Compound 229] | > 80% | < 80% | < 80% | > 80% | < 25% | < 80% | 89 to 91 °C | < 80% | – | – | – | – | – | – | pest or weed control at 100 ppm [5, 15]: < 25%; pest or weed control at 100 ppm [8, 15]: < 25%; pest or weed control at 100 ppm [10, 16]: < 25%; pest or weed control at 100 ppm [11, 15]: < 25%
5 | COc1ccnc(C(=O)NC2CC(C)(C)CC(C)(C(=O)c3ccccc3)C2)c1O (stereo not drawn) [Compound 260] | < 80% | < 80% | < 80% | < 80% | < 25% | < 80% | 147 to 149 °C | > 80% | – | – | – | – | – | – | pest or weed control at 100 ppm [5, 15]: 25 to 74%; pest or weed control at 100 ppm [8, 15]: < 25%; pest or weed control at 100 ppm [10, 16]: 25 to 74%; pest or weed control at 100 ppm [11, 15]: < 25%
6 | COc1ccnc(C(=O)Nc2ccc(Oc3cc(Cl)nc(C(F)(F)F)c3)cc2)c1O [Compound 467] | – | < 80% | < 80% | < 80% | < 25% | < 80% | 198 to 201 °C | – | < 80% | 25 to 74% | < 25% | > 80% | 25 to 74% | 25 to 74% | –
7 | COc1ccccc1CNC(=O)c1ncccc1O [Compound 224] | < 80% | < 80% | < 80% | > 80% | < 25% | < 80% | 75 to 76 °C | < 80% | – | – | – | – | – | – | pest or weed control at 100 ppm [5, 15]: < 25%; pest or weed control at 100 ppm [8, 15]: < 25%; pest or weed control at 100 ppm [10, 16]: < 25%; pest or weed control at 100 ppm [11, 15]: < 25%
8 | Cc1nc(O)c(C(=O)N[C@H]2COC(=O)[C@H](Cc3ccccc3)[C@@H](OC(=O)C(C)C)[C@H](C)OC2=O)cc1Cl [Compound 531] | – | < 80% | < 80% | < 80% | < 25% | < 80% | 103 to 108 °C | – | < 80% | 25 to 74% | < 25% | < 80% | 25 to 74% | 25 to 74% | –
9 | COc1ccnc(C(=O)N[C@H]2COC(=O)[C@H](Cc3ccccc3)[C@@H](OC(=O)C(C)(C)C)[C@H](C)OC2=O)c1O [Compound 388] | > 80% | < 80% | < 80% | < 80% | < 25% | < 80% | 212 to 214 °C | > 80% | – | – | – | – | – | – | pest or weed control at 100 ppm [5, 17]: 25 to 74%; pest or weed control at 100 ppm [8, 17]: 25 to 74%; LEPTNO in vivo 1 Day Protectant ([10]; 100 ppm spray, wheat, 24 hour protectant, control of fungal infection vs untreated plants): + +; pest or weed control at 100 ppm [11, 17]: < 25%
10 | CSc1nnc(C(=O)NC2CCCCCCC2)c(O)n1 [Compound 546] | – | < 80% | < 80% | < 80% | < 25% | > 80% | 208 to 213 °C | – | < 80% | 25 to 74% | 25 to 74% | < 80% | 25 to 74% | < 25% | –
11 | COc1nc(O)c(C(=O)N[C@H]2COC(=O)[C@H](Cc3ccccc3)[C@@H](OC(=O)C(C)C)[C@H](C)OC2=O)nc1Cl [Compound 537] | – | < 80% | < 80% | < 80% | < 25% | < 80% | 84 to 86 °C | – | < 80% | 25 to 74% | 25 to 74% | < 80% | – | < 25% | LEPTNO in vivo 1 Day Protectant [10, 14]: + +
